Several values for one entry are separate records, joined by “and”; a condition that tells them apart may be missing. Equal values may be shown once. Toxic doses and inconclusive results are not listed. The calls were made as follows: active = survival T/C of 150% or more; inactive = T/C below 125% in these data.
System: CD2F1 mice, L1210 leukemia ip, survival T/C
Assay: NCI In Vivo Anticancer Drug Screen. Data for tumor model L1210 Leukemia (intraperitoneal) in CD2F1 (CDF1) mice
Settings: endpoint: mean survival time, higher = longer survival
Outline: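 Compound-dosed mice with transplantable tumor versus matched vehicle controls; endpoint ratio T/C reported.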

[1] = dose: 50.0 mg/kg/injection, schedule: Q04DX003 (ip), vehicle: saline
[2] = dose: 100.0 mg/kg/injection, schedule: Q04DX003 (ip), vehicle: saline
[3] = dose: 200.0 mg/kg/injection, schedule: Q04DX003 (ip), vehicle: saline
[4] = dose: 100.0 mg/kg/injection, schedule: Q01DX001 (ip), vehicle: saline with Tween-80
[5] = dose: 100.0 mg/kg/injection, schedule: Q01DX009 (ip), vehicle: saline with Tween-80
[6] = dose: 200.0 mg/kg/injection, schedule: Q01DX001 (ip), vehicle: saline with Tween-80
[7] = dose: 200.0 mg/kg/injection, schedule: Q01DX009 (ip), vehicle: saline with Tween-80
[8] = dose: 400.0 mg/kg/injection, schedule: Q01DX001 (ip), vehicle: saline with Tween-80
[9] = dose: 100.0 mg/kg/injection, schedule: Q04DX003 (ip), vehicle: saline with Tween-80
[10] = dose: 200.0 mg/kg/injection, schedule: Q04DX003 (ip), vehicle: saline with Tween-80
[11] = dose: 400.0 mg/kg/injection, schedule: Q04DX003 (ip), vehicle: saline with Tween-80
[12] = dose: 400.0 mg/kg/injection, schedule: Q01DX009 (ip), vehicle: saline with Tween-80

Measured: T/C

OC1(c2ccccc2)CN(Cc2ccccc2)CCO1 (configuration not stated)
inactive: dose: 50.0 mg/kg/injection, schedule: Q01DX009 (ip), vehicle: saline 104 % of control | [1] 93 % of control | dose: 100.0 mg/kg/injection, schedule: Q01DX009 (ip), vehicle: saline 102 % of control | [2] 101 % of control | dose: 200.0 mg/kg/injection, schedule: Q01DX009 (ip), vehicle: saline 98 % of control | [3] 102 % of control

COc1cccc2c1C(=O)OC2=O
inactive: dose: 12.5 mg/kg/injection, schedule: Q01DX005 (ip), vehicle: Klucel (hydroxypropylcellulose) (HPC) 101 % of control | dose: 25.0 mg/kg/injection, schedule: Q01DX005 (ip), vehicle: Klucel (hydroxypropylcellulose) (HPC) 101 % of control | dose: 50.0 mg/kg/injection, schedule: Q01DX005 (ip), vehicle: Klucel (hydroxypropylcellulose) (HPC) 95 % of control | dose: 100.0 mg/kg/injection, schedule: Q01DX005 (ip), vehicle: Klucel (hydroxypropylcellulose) (HPC) 94 % of control | dose: 200.0 mg/kg/injection, schedule: Q01DX005 (ip), vehicle: Klucel (hydroxypropylcellulose) (HPC) 95 % of control

CC(C)(C)C1CCC(OC(=O)C(=O)O)CC1 (configuration not stated)
inactive: [4] 100 % of control | [5] 104 % of control | [6] 97 % of control | [7] 87 % of control | [8] 95 % of control

NC(=O)c1cc(C(N)=O)n(C2OC(CO)C(O)C2O)n1 (configuration not stated)
inactive: dose: 12.5 mg/kg/injection, schedule: Q01DX005 (ip), vehicle: water 100 % of control | dose: 25.0 mg/kg/injection, schedule: Q01DX005 (ip), vehicle: water 100 % of control | dose: 50.0 mg/kg/injection, schedule: Q01DX005 (ip), vehicle: water 92 % of control | dose: 100.0 mg/kg/injection, schedule: Q01DX005 (ip), vehicle: water 107 % of control | dose: 200.0 mg/kg/injection, schedule: Q01DX005 (ip), vehicle: water 96 % of control

O=[N+]([O-])/C(=C/C=C/c1ccccc1)c1ccccc1
inactive: [4] 101 % of control | [6] 103 % of control | [8] 91 % of control

O=c1[nH]cc(N=Cc2ccccc2O)c(=O)[nH]1.[Cl][Pt]
inactive: dose: 3.13 mg/kg/injection, schedule: Q04DX003 (ip), vehicle: water 96 % of control | dose: 6.25 mg/kg/injection, schedule: Q04DX003 (ip), vehicle: water 96 % of control | dose: 12.5 mg/kg/injection, schedule: Q04DX003 (ip), vehicle: water 97 % of control | dose: 25.0 mg/kg/injection, schedule: Q04DX003 (ip), vehicle: water 108 % of control | dose: 50.0 mg/kg/injection, schedule: Q04DX003 (ip), vehicle: water 102 % of control | dose: 100.0 mg/kg/injection, schedule: Q04DX003 (ip), vehicle: water 100 % of control | dose: 200.0 mg/kg/injection, schedule: Q04DX003 (ip), vehicle: water 108 % of control

COc1ccc2c(Nc3ccc(NS(C)(=O)=O)cc3)c3ccccc3nc2c1
inactive: dose: 25.0 mg/kg/injection, schedule: Q01DX009 (ip), vehicle: saline with Tween-80 100 % of control | dose: 50.0 mg/kg/injection, schedule: Q01DX009 (ip), vehicle: saline with Tween-80 86 % of control | [9] 120 % of control | dose: 150.0 mg/kg/injection, schedule: Q04DX003 (ip), vehicle: saline with Tween-80 94 % of control

Cc1ccc(NC(=O)Nc2cccc(CNC(=O)COc3ccc(Cl)cc3C(=O)O)c2)cc1S(=O)(=O)F
inactive: dose: 25.0 mg/kg/injection, schedule: Q01DX001 (ip), vehicle: saline with Tween-80 102 % of control | dose: 50.0 mg/kg/injection, schedule: Q01DX001 (ip), vehicle: saline with Tween-80 96 % of control | [4] 93 % of control | [6] 86 % of control | [8] 88 % of control

O=[N+]([O-])c1ccc(CCCl)c(CCl)c1
inactive: [9] 98 % of control | [10] 86 % of control

Nc1c(O)cc(S(=O)(=O)O)c2ccccc12
inactive: dose: 25.0 mg/kg/injection, schedule: Q04DX003 (ip), vehicle: saline 95 % of control | [1] 103 % of control | [2] 109 % of control

CCCCN=C(Cl)C(Cl)(c1ccccc1)c1ccccc1
inactive: dose: 100.0 mg/kg/injection, schedule: Q04DX002 (ip), vehicle: saline 98 % of control | dose: 200.0 mg/kg/injection, schedule: Q04DX002 (ip), vehicle: saline 103 % of control | dose: 400.0 mg/kg/injection, schedule: Q04DX002 (ip), vehicle: saline 95 % of control

Clc1c(Cl)c(CBr)c(Cl)c(-c2c(Cl)c(Cl)c(Cl)c(CBr)c2Cl)c1Cl
inactive: [9] 93 % of control | [10] 107 % of control | [11] 104 % of control

O=C(O)C1C2CCCCC21 (configuration not stated)
inactive: [5] 105 % of control | [9] 98 % of control | [7] 94 % of control | [10] 100 % of control | [12] 101 % of control | [11] 94 % of control

CC1=CC(C)(C(Cl)Cl)C=CC1=O (configuration not stated)
inactive: dose: 75.0 mg/kg/injection, schedule: Q01DX009 (ip), vehicle: saline with Tween-80 101 % of control | [9] 102 % of control | dose: 150.0 mg/kg/injection, schedule: Q01DX009 (ip), vehicle: saline with Tween-80 101 % of control | [10] 95 % of control | dose: 300.0 mg/kg/injection, schedule: Q01DX009 (ip), vehicle: saline with Tween-80 98 % of control | [11] 93 % of control

N#Cc1ccc(CCl)cc1
inactive: dose: 50.0 mg/kg/injection, schedule: Q01DX009 (ip), vehicle: Klucel (hydroxypropylcellulose) (HPC) 98 % of control | dose: 100.0 mg/kg/injection, schedule: Q01DX009 (ip), vehicle: Klucel (hydroxypropylcellulose) (HPC) 98 % of control

O=[N+]([O-])c1ccc2c(ccn2C2OCC(O)C(O)C2O)c1 (configuration not stated)
inactive: dose: 450.0 mg/kg/injection, schedule: Q01DX009 (ip), vehicle: saline with Tween-80 101 % of control

O=CCCNP(=O)(OCc1ccccc1)N(CCCl)CCCl (configuration not stated)
inactive: dose: 13.13 mg/kg/injection, schedule: Q01DX001 (ip), vehicle: DMSO 103 % of control | dose: 26.25 mg/kg/injection, schedule: Q01DX001 (ip), vehicle: DMSO 98 % of control | dose: 52.5 mg/kg/injection, schedule: Q01DX001 (ip), vehicle: DMSO 103 % of control | dose: 105.0 mg/kg/injection, schedule: Q01DX001 (ip), vehicle: DMSO 104 % of control | dose: 210.0 mg/kg/injection, schedule: Q01DX001 (ip), vehicle: DMSO 101 % of control | dose: 420.0 mg/kg/injection, schedule: Q01DX001 (ip), vehicle: DMSO 101 % of control | dose: 840.0 mg/kg/injection, schedule: Q01DX001 (ip), vehicle: DMSO 101 % of control

NC(=O)c1ncn(C2OC(CO)C(O)C2O)c1O (configuration not stated)
inactive: dose: 12.5 mg/kg/injection, schedule: Q01DX009 (ip), vehicle: Klucel (hydroxypropylcellulose) (HPC) 122 % of control | dose: 25.0 mg/kg/injection, schedule: Q01DX009 (ip), vehicle: Klucel (hydroxypropylcellulose) (HPC) 113 % of control and 120 % of control | dose: 200.0 mg/kg/injection, schedule: Q01DX009 (ip), vehicle: Klucel (hydroxypropylcellulose) (HPC) 116 % of control and 106 % of control | dose: 400.0 mg/kg/injection, schedule: Q01DX009 (ip), vehicle: Klucel (hydroxypropylcellulose) (HPC) 120 % of control and 93 % of control and 110 % of control

CCOC(=O)C(CCC(=O)O)NC(=O)OCc1ccccc1 (configuration not stated)
inactive: [9] 97 % of control | [10] 99 % of control | [11] 91 % of control

CCC(C)(C)C(=O)O
inactive: [9] 100 % of control | [10] 103 % of control | [11] 105 % of control

O=C1C=C(N2CC2)C(=O)C=C1N1CC1
inactive: dose: 0.12 mg/kg/injection, schedule: Q01DX Z (ip), vehicle: saline 120 % of control and 103 % of control | dose: 0.25 mg/kg/injection, schedule: Q01DX Z (ip), vehicle: saline 119 % of control | dose: 0.5 mg/kg/injection, schedule: Q01DX Z (ip), vehicle: saline 120 % of control | dose: 1.0 mg/kg/injection, schedule: Q01DX Z (ip), vehicle: saline 91 % of control

Cc1cccc(C2=NCCN2)c1C
inactive: dose: 5.0 mg/kg/injection, schedule: Q01DX001 (ip), vehicle: saline with Tween-80 95 % of control | dose: 10.0 mg/kg/injection, schedule: Q01DX001 (ip), vehicle: saline with Tween-80 97 % of control | dose: 20.0 mg/kg/injection, schedule: Q01DX001 (ip), vehicle: saline with Tween-80 97 % of control

C=CCON(C)c1ccccc1
inactive: [5] 94 % of control | [7] 90 % of control | [12] 99 % of control

Cc1ccc2scc3c4ccccc4nc-3c2c1
inactive: dose: 100.0 mg/kg/injection, schedule: Q04DX003 (ip), vehicle: acetone 97 % of control

CN(N=O)c1nnnn1C
inactive: [2] 105 % of control | [3] 103 % of control | dose: 400.0 mg/kg/injection, schedule: Q04DX003 (ip), vehicle: saline 106 % of control
